According to patent US7329670B1, “Inhibition of RAF kinase using aryl and heteroaryl substituted heterocyclic ureas” (Bayer Pharmaceuticals Corporation, priority 1997, dated 2008):

Row | melting point [°C] | SMILES
1 | 195 to 198 | CC(C)(C)c1cc(NC(=O)Nc2cccc(Cl)c2Cl)c(-c2ccncc2)o1 [Entry 40, N-(2-(4-Pyridinyl)-5-tert-butyl-3-furyl)-N′-(2,3-dichlorophenyl)urea]
2 | 171 to 173 | CC(C)(C)c1cc(NC(=O)Nc2cccc(Cl)c2Cl)c(-c2ccccc2)s1 [Entry 41, N-(2-Phenyl-5-tert-butyl-3-thienyl)-N′-(2,3-dichlorophenyl)urea]
